pIC50: −log10 of the molar value. Read-outs that look alike come from different tables or passages of the source.
Tests used:
[1] = test system: Huh7 cells; test: CCK8 cell viability assay in Huh7 cells; assay type: cell-based, human; details: human Huh7 cells; 24 h
Description: (§1) Cell viabilities were analyzed using cell counting kit 8 (CCK8) (catalog no. HY-K0301; MCE) according to the manufacturer’s instructions. Ten microliters of the CCK8 reagent was added to each well of a 96-well plate. After incubation at 37°C for 1 h, optical density (OD) values were measured at 450 nm using a BioTek instrument. The CC50 was calculated by nonlinear regression analysis.

[2] = test system: SARS-CoV-2 replicon; test: microbe, parasite or virus in culture; assay type: cell-based; details: for pIC50: BHK-21 cells, read-out: IC50, SARS-CoV-2 replicon luciferase activity
[3] = test system: A549-ACE2 cells; test: CCK8 cell viability assay in A549-ACE2 cells; assay type: cell-based, human
Description: as §1

[4] = test system: wild-type SARS-CoV-2; test: Wild-type SARS-CoV-2 infection of A549-ACE2 cells, qRT-PCR of supernatant viral RNA; assay type: cell-based; details: 10 μM inhibitor, MOI 0.8, 24 h p.i.
[5] = test system: SARS-CoV-2 replicon; test: microbe, parasite or virus in culture; assay type: cell-based; details: human Huh7 cells, read-out: IC50, SARS-CoV-2 replicon luciferase activity
[6] = test system: wild-type SARS-CoV-2; assay type: cell-based; details: A549-ACE2; pretreated 1 h; MOI 0.8; 24 h p.i.; DMSO 20%
[7] = test system: SARS-CoV-2 pseudovirus; assay type: cell-based; details: pretreated 1 h, % of DMSO
[8] = test system: Zika virus (ZIKV) replicon; test: ZIKV replicon luciferase assay in BHK-21 cells; assay type: cell-based; details: both 6 and 24 h posttransfection
Description: FIG 4 PKC inhibitors play an antiviral role during the early stage of SARS-CoV-2 replication. (A to E) Effect of PKC inhibitors on protein translation. BHK-21 cells were pretreated with DMSO or the indicated inhibitors for 1 h, followed by transfection with SARS-CoV-2 replicon RNA, GFP- or Renilla luciferase-expressing plasmids, or ZIKV replicon RNA. Luciferase assays or Western blot assays were performed at the indicated hours after transfection. MW, molecular weight; RLU, relative luciferase units. (F) Effect of PKC inhibitors on 3CL^pro activity. The protein activities were determined using a 2019 nCoV M^pro/3CL^pro inhibitor screening kit. SARS-CoV-2 3CL^pro, the substrate, and the inhibitors were incubated at 37°C for 5 min, and […] were measured at 490 nm using a multimode plate reader. […] P values were calculated by ANOVA with Dunnett’s multiple-comparison test or unpaired, two-tailed Student’s t tests (*, P < 0.05; **, P < 0.01; ***, P < 0.001; ****, P < 0.0001; NS, not significant).
To test whether these inhibitors specifically block viral protein translation, we compared the expression levels of ectopically expressed green fluorescent protein (GFP) or Renilla luciferase in the absence and presence of the PKC inhibitor. At 24 h posttransfection, the GFP protein levels or relative Renilla luciferase activities were determined by a Western blot or luciferase assay. […]

[9] = test system: GFP- or Renilla luciferase-expressing plasmids; assay type: cell-based, hamster; details: BHK-21, 24 h posttransfection; for GFP levels vs DMSO-treated cells: Western blot
[10] = test system: BHK-21 cells; test: CCK8 cell viability assay in BHK-21 cells; assay type: cell-based, hamster; details: 24 h
Description: as §1

[11] = biological target: T1, SARS-CoV-2 3CL^pro (Severe acute respiratory syndrome coronavirus 2, UniProt P0DTD1); assay type: biochemical; details: 37°C, 5 min incubation
T1 construct: One microliter of SARS-CoV-2 3CL^pro reagent; purchased Beyotime P0312S

[12] = CCK8 cell viability assay in Huh7 cells; assay type: cell-based, human
Description: as §1

[13] = CCK8 cell viability assay in A549-ACE2 cells; assay type: cell-based, human; details: human
Description: as §1

[14] = CCK8 cell viability assay in BHK-21 cells; assay type: cell-based, hamster
Description: as §1

[15] = BHK-21 cells, read-out: CC50 (CCK8 cell viability)
[16] = BHK-21, pretreated 1 h, […], vs DMSO
[17] = Severe acute respiratory syndrome coronavirus 2, pretreated 1 h, […]
[18] = Severe acute respiratory syndrome coronavirus 2, Huh-7, 24 h
[19] = human Huh7 cells, 24 h, read-out: CC50 (CCK8 cell viability)

Compound: COc1ccc2c(c1)c(C1=C(c3c[nH]c4ccccc34)C(=O)NC1=O)cn2CCCN(C)C [Go 6983]
- CC50 [1]: 24.9 µM
- relative luciferase activity lower than that in DMSO-treated cells [2]: about 99%
- replicon luciferase activities at all tested time points vs DMSO [2]: constantly lower
- pIC50 ([2]; pretreated 1 h, […]): 7.06
- CC50 [3]: 50 µM
- viral RNA level in supernatant, fold lower than DMSO [4]: about 12 fold
- pIC50 [5]: 6.44
- percentage of N-positive cells [6]: 12%
- luciferase activity of pseudovirus relative to DMSO-treated cells (entry) [7]: about 35%
- replication levels of the ZIKV replicon [8]: barely affected
- Renilla luciferase activities vs DMSO-treated cells [9]: comparable
- GFP levels vs DMSO-treated cells [9]: comparable
- CC50 [10, 15]: 16.9 µM

Compound: CN(C)CCCn1cc(C2=C(c3c[nH]c4ccccc34)C(=O)NC2=O)c2ccccc21 [bisindolylmaleimide I]
- CC50 [1]: 30 µM
- relative luciferase activity lower than that in DMSO-treated cells [2]: ~96%
- replicon luciferase activities at all tested time points vs DMSO [2]: constantly lower
- pIC50 ([2]; pretreated 1 h, […]): 6.41
- CC50 [3]: 50.9 µM
- viral RNA level in supernatant, fold lower than DMSO [4]: ~16 fold
- pIC50 [5]: 6.38
- percentage of N-positive cells [6]: 3%
- luciferase activity of pseudovirus relative to DMSO-treated cells (entry) [7]: ~24%
- replication levels of the ZIKV replicon [8]: barely affected
- Renilla luciferase activities vs DMSO-treated cells [9]: comparable
- GFP levels vs DMSO-treated cells [9]: comparable
- CC50 [10, 15]: 15.9 µM

Compound: O=c1c2ccccc2[se]n1-c1ccccc1 [ebselen]
- replicon luciferase activity at 6 h (protein translation / polyprotein cleavage) [2, 16]: reduced
- SARS-CoV-2 3CLpro protease activity [11]: dramatically reduced

Compound: Cn1cc(C2=C(c3cn(C4CCN(Cc5ccccn5)CC4)c4ccccc34)C(=O)NC2=O)c2ccccc21 [enzastaurin]
- CC50 at 24 h ([12]; human): 86.4 µM
- relative luciferase activity lower than that in DMSO-treated cells [2]: ~92%
- replicon luciferase activities at all tested time points vs DMSO [2]: constantly lower
- pIC50 [2, 17]: 6.03
- CC50 [13]: 80 µM
- viral RNA level in supernatant, fold lower than DMSO [4]: ~3 fold
- pIC50 [5, 18]: 6.03
- percentage of N-positive cells [6]: 12%
- luciferase activity of pseudovirus relative to DMSO-treated cells (entry) [7]: ~42%
- CC50 at 24 h ([14]; hamster, CC50 (CCK8 cell viability)): > 160 µM
- CC50 ([10]; hamster): 160 µM

Compound: CCC(CC)COC(=O)[C@H](C)N[P@](=O)(OC[C@H]1O[C@@](C#N)(c2ccc3c(N)ncnn23)[C@H](O)[C@@H]1O)Oc1ccccc1 [remdesivir]
- replicon luciferase activity at 6 h (protein translation / polyprotein cleavage) [2, 16]: did not alter
- replicon luciferase activity at 24 h (RNA synthesis) [2, 16]: significantly reduced

Compound: CC(=O)c1c(O)c(C)c(O)c(Cc2c(O)c3c(c(C(=O)/C=C/c4ccccc4)c2O)OC(C)(C)C=C3)c1O [rottlerin]
- CC50 at 24 h [12, 19]: 4.46 µM
- pIC50 [2, 17]: 6.32
- pIC50 [5, 18]: 6.48
- CC50 at 24 h ([14]; hamster; BHK-21 cells; 24 h; read-out: CC50 (CCK8 cell viability)): 1.43 µM

Compound: CN1CCN(c2nc(C3=C(c4c[nH]c5ccccc45)C(=O)NC3=O)c3ccccc3n2)CC1 [sotrastaurin]
- CC50 at 24 h [12, 19]: 50.8 µM
- relative luciferase activity lower than that in DMSO-treated cells [2]: ~89%
- replicon luciferase activities at all tested time points vs DMSO [2]: constantly lower
- pIC50 [2, 17]: 5.57
- pIC50 [5, 18]: 5.72
- luciferase activity of pseudovirus relative to DMSO-treated cells (entry) [7]: ~55%
- CC50 at 24 h ([14]; hamster, BHK-21 cells; 24 h; read-out: CC50 (CCK8 cell viability)): 82.2 µM
